Experimental data: patent US20160158376A1 (priority 2013, published 2016)
Where two headings read alike, the source gives them in different places.

Experiments:
Candida albicans = experiment: Pharmacodynamic assay, immunodepleted mice infected with Candida albicans; format: in vivo; conditions: for Number of animal death: mice (20 per group), tail vein, day 7
Text: Method: Mice whose immunity was depleted by conventional method (white cell count≦100) were infected with Candida albicans, and randomly divided into eight groups, 20 per group. Mice received the treatment outlined in the following table by injection through the tail vein. […] Continuously monitoring animal survival for seven days, and counting the number of dead mice on day 7.

[1] = rat, cited from earlier work
[2] = cited from earlier work
[3] = mouse; Proffitt et al. 1991; cited from earlier work
[4] = Solubility assay of the polyconjugate; format: physicochemical; conditions: water, room temperature (22˜25° C.), as active drug

| Molecule | Number of animal death (Candida albicans; 1 mg/kg as amphotericin B) | Number of animal death (Candida albicans; 2 mg/kg as amphotericin B) | 50% effective dose (Candida albicans; mice infected with Candida albicans, survival at day 7, as amphotericin B) | LD50 ([1]; intravenous, Pfizer material safety data sheet) | LD50 ([1]; Proffitt et al. 1991) | solubility in water [2] | LD50 [3] | solubility (amount of the soluble active drug) [4] | Number of animal death (Candida albicans; 0.25 mg/kg as amphotericin B) | Number of animal death (Candida albicans; 0.5 mg/kg as amphotericin B) |
| --- | --- | --- | --- | --- | --- | --- | --- | --- | --- | --- |
| CC1O[C@@H](O[C@H]2/C=C/C=C/C=C/C=C/C=C/C=C/C=C/[C@H](C)[C@@H](O)[C@@H](C)[C@H](C)OC(=O)C[C@H](O)C[C@H](O)CC[C@@H](O)[C@H](O)C[C@H](O)C[C@]3(O)C[C@H](O)[C@@H](C(=O)O)[C@H](C2)O3)C(O)C(N)[C@@H]1O (stereo partly drawn) [amphotericin B] | 10 dead | 3 dead | about 1 mg/kg | 1.6 mg/kg | 1.6 mg/kg | insoluble | 2.3 mg/kg | – | – | – |
| amphotericin B-hydroxyethyl starch polyconjugate [Preparation 22] | – | – | – | – | – | – | – | 0.026% | – | – |
| poly-aspartic acid-amphotericin B polyconjugate [Preparation 1] | 0 dead | 0 dead | – | – | – | – | – | – | 5 dead | 0 dead |
